Results as given in PubChem BioAssay AID1963451 (Molecular Pharmacology Branch, DTP, NCI, 2024).
“And” between values parts separate entries of the source, which are not always exact repeats. Identical values can stand only once.

Tested on: 521955-158-R6-J3-PDC complex spheroid growth, % test/control
Test: Anticancer human tumor 521955-158-R6-J3-PDC patient-derived pancreatic carcinoma cell line growth inhibition [Asc]
Settings: for viability, T/C: stronger effect = lower value; active = viability on the fitted dose curve at most 10% of control; inactive = the rest
How it was run: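 Tumor cells were grown as multicellular spheroids with stromal HUVEC and mesenchymal stem cells and treated singly or in combination. Concentrations fell in half-log steps from the clinical Cmax, or from 10 microM where none was known.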

[1] = curve of first compound, second compound 0.00316 µM
[2] = curve of first compound, second compound 0.01 µM
[3] = curve of first compound, second compound 0.0316 µM
[4] = curve of first compound, second compound 0.1 µM
[5] = curve of first compound, second compound 0.316 µM
[6] = curve of first compound, second compound 1 µM
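Also: spheroids exposed to compounds for 7 days.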
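For viability, T/C in this document: 100% = DMSO vehicle control wells.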

CCN1C(C(=O)NC23CCC(C(=O)O)(CC2)CC3)C(c2cccc(Cl)c2F)C2(C(=O)Nc3cc(Cl)ccc32)C12CCCCC2 (stereo unspecified) + CNC(C)C(=O)NC1CN(S(=O)(=O)c2cccc(S(=O)(=O)N3CCC4CCC(C(=O)NC(c5ccccc5)c5ccccc5)N4C(=O)C(NC(=O)C(C)NC)C3)c2)CCC2CCC(C(=O)NC(c3ccccc3)c3ccccc3)N2C1=O
> 3 µM: IC50 [1] | IC50 [2] | IC50 [3] | IC50 [4] | IC50 [5] | IC50 [6]
inactive: viability, T/C (second compound 0.00316 µM, first compound 0.00949 µM) 110% | viability, T/C (second compound 0.00316 µM, first compound 0.03 µM) 110% | viability, T/C (second compound 0.00316 µM, first compound 0.0949 µM) 89.7% | viability, T/C (second compound 0.00316 µM, first compound 0.3 µM) 111% | viability, T/C (second compound 0.00316 µM, first compound 0.949 µM) 99.5% | viability, T/C (second compound 0.00316 µM, first compound 3 µM) 97.5% | viability, T/C (second compound 0.01 µM, first compound 0.00949 µM) 111% | viability, T/C (second compound 0.01 µM, first compound 0.03 µM) 90.1% | viability, T/C (second compound 0.01 µM, first compound 0.0949 µM) 99.4% | viability, T/C (second compound 0.01 µM, first compound 0.3 µM) 98.8% | viability, T/C (second compound 0.01 µM, first compound 0.949 µM) 102% | viability, T/C (second compound 0.01 µM, first compound 3 µM) 103% | viability, T/C (second compound 0.0316 µM, first compound 0.00949 µM) 106% | viability, T/C (second compound 0.0316 µM, first compound 0.03 µM) 78.3% | viability, T/C (second compound 0.0316 µM, first compound 0.0949 µM) 91.3% | viability, T/C (second compound 0.0316 µM, first compound 0.3 µM) 96.3% | viability, T/C (second compound 0.0316 µM, first compound 0.949 µM) 85.9% | viability, T/C (second compound 0.0316 µM, first compound 3 µM) 85.3% | viability, T/C (second compound 0.1 µM, first compound 0.00949 µM) 86.8% | viability, T/C (second compound 0.1 µM, first compound 0.03 µM) 92.4% | viability, T/C (second compound 0.1 µM, first compound 0.0949 µM) 81.9% | viability, T/C (second compound 0.1 µM, first compound 0.3 µM) 92% | viability, T/C (second compound 0.1 µM, first compound 0.949 µM) 93.3% | viability, T/C (second compound 0.1 µM, first compound 3 µM) 96.4% | viability, T/C (second compound 0.316 µM, first compound 0.00949 µM) 70.1% | viability, T/C (second compound 0.316 µM, first compound 0.03 µM) 82.4% | viability, T/C (second compound 0.316 µM, first compound 0.0949 µM) 97.7% | viability, T/C (second compound 0.316 µM, first compound 0.3 µM) 83.3% | viability, T/C (second compound 0.316 µM, first compound 0.949 µM) 82.1% | viability, T/C (second compound 0.316 µM, first compound 3 µM) 88.2% | viability, T/C (second compound 1 µM, first compound 0.00949 µM) 85.2% | viability, T/C (second compound 1 µM, first compound 0.03 µM) 102% | viability, T/C (second compound 1 µM, first compound 0.0949 µM) 90.1% | viability, T/C (second compound 1 µM, first compound 0.3 µM) 83% | viability, T/C (second compound 1 µM, first compound 0.949 µM) 84.9% | viability, T/C (second compound 1 µM, first compound 3 µM) 96.4%

C=CC(=O)N1CCN(c2nc(=O)n(-c3c(C)ccnc3C(C)C)c3nc(-c4c(O)cccc4F)c(F)cc23)C(C)C1 (stereo unspecified) + CNC(C)C(=O)NC1CN(S(=O)(=O)c2cccc(S(=O)(=O)N3CCC4CCC(C(=O)NC(c5ccccc5)c5ccccc5)N4C(=O)C(NC(=O)C(C)NC)C3)c2)CCC2CCC(C(=O)NC(c3ccccc3)c3ccccc3)N2C1=O
inactive: viability, T/C (second compound 0.00316 µM, first compound 0.0316 µM) 98.2% | viability, T/C (second compound 0.00316 µM, first compound 0.1 µM) 110% | viability, T/C (second compound 0.00316 µM, first compound 0.316 µM) 116% | viability, T/C (second compound 0.00316 µM, first compound 1 µM) 121% | viability, T/C (second compound 0.00316 µM, first compound 3.16 µM) 98.8% | viability, T/C (second compound 0.00316 µM, first compound 10 µM) 80.4% | viability, T/C (second compound 0.01 µM, first compound 0.0316 µM) 121% | viability, T/C (second compound 0.01 µM, first compound 0.1 µM) 85.3% | viability, T/C (second compound 0.01 µM, first compound 0.316 µM) 89.8% | viability, T/C (second compound 0.01 µM, first compound 1 µM) 94.9% | viability, T/C (second compound 0.01 µM, first compound 3.16 µM) 105% | viability, T/C (second compound 0.01 µM, first compound 10 µM) 81.3% | viability, T/C (second compound 0.0316 µM, first compound 0.0316 µM) 95.2% | viability, T/C (second compound 0.0316 µM, first compound 0.1 µM) 76.5% | viability, T/C (second compound 0.0316 µM, first compound 0.316 µM) 108% | viability, T/C (second compound 0.0316 µM, first compound 1 µM) 95.1% | viability, T/C (second compound 0.0316 µM, first compound 3.16 µM) 104% | viability, T/C (second compound 0.0316 µM, first compound 10 µM) 70.8% | viability, T/C (second compound 0.1 µM, first compound 0.0316 µM) 92.2% | viability, T/C (second compound 0.1 µM, first compound 0.1 µM) 78.7% | viability, T/C (second compound 0.1 µM, first compound 0.316 µM) 88% | viability, T/C (second compound 0.1 µM, first compound 1 µM) 108% | viability, T/C (second compound 0.1 µM, first compound 3.16 µM) 93% | viability, T/C (second compound 0.1 µM, first compound 10 µM) 66.7% | viability, T/C (second compound 0.316 µM, first compound 0.0316 µM) 89.7% | viability, T/C (second compound 0.316 µM, first compound 0.1 µM) 91.6% | viability, T/C (second compound 0.316 µM, first compound 0.316 µM) 79.2% | viability, T/C (second compound 0.316 µM, first compound 1 µM) 107% | viability, T/C (second compound 0.316 µM, first compound 3.16 µM) 100% | viability, T/C (second compound 0.316 µM, first compound 10 µM) 84.2% | viability, T/C (second compound 1 µM, first compound 0.0316 µM) 81.4% | viability, T/C (second compound 1 µM, first compound 0.1 µM) 82.5% | viability, T/C (second compound 1 µM, first compound 0.316 µM) 89.5% | viability, T/C (second compound 1 µM, first compound 1 µM) 88.7% | viability, T/C (second compound 1 µM, first compound 3.16 µM) 94.6% | viability, T/C (second compound 1 µM, first compound 10 µM) 83.5%
> 10 µM: IC50 [1] | IC50 [2] | IC50 [3] | IC50 [4] | IC50 [5] | IC50 [6]

COc1c(OCCCN2CCOCC2)ccc2c3n(c(=NC(=O)c4cnc(N)nc4)nc12)CCN3
0.592 µM and 0.275 µM and 0.177 µM: IC50 (curve of compound)
inactive: viability, T/C (compound 0.00316 µM) 83.2% and 98.8% and 91.5% | viability, T/C (compound 0.01 µM) 97.2% and 78.8% and 72.1% | viability, T/C (compound 0.0316 µM) 76.5% and 75.6% and 63.8% | viability, T/C (compound 0.1 µM) 62.5% and 81.4% and 64.8% | viability, T/C (compound 0.316 µM) 41.9% and 61.3% and 48.6% | viability, T/C (compound 1 µM) 34.7% and 40% and 32.8%
